Measurements reported in patent US11304964B2, “Bolaamphiphilic compounds, compositions and uses thereof” (priority 2012, dated 2022).

Experiment: Pharmacokinetic studies, second set (LC-MS, brain)
Type: in vivo
Conditions: pyrido pretreated mice
Method: Another group of mice were injected with free tenofovir. The total dose of tenofovir that was injected to the mice that received encapsulated tenofovir was […], out of which 7.5 mg/kg was encapsulated tenofovir. The total dose of tenofovir that was injected to the mice that received free tenofovir was 75 mg/kg. All animals were pretreated with 0.5 mg/kg pyrido. Results are mean of 5 mice±SD.
In the second set of the PK studies, all the mice were pretreated with pyrido 15 min prior to the injection of 7.5 mg/kg tenofovir encapsulated in optimal vesicles or with 75 mg/kg free tenofovir with no vesicles.

C[C@H](Cn1cnc2c(N)ncnc21)OCP(=O)(O)O [tenofovir, ({[(2R)-1-(6-amino-9H-purin-9-yl)propan-2-yl]oxy}methyl)phosphonic acid]
concentration of tenofovir in the brain (7.5 mg/kg tenofovir encapsulated in optimized V-Smart vesicles, all time points up to 2 hours, vs estimated therapeutic threshold): > 0.1 µg/mL | concentrations of tenofovir in the brain (free drug 75 mg/kg, no vesicles, detection limit 40 ng/ml): below the measurable level | concentration at 60 min (mouse, brain, intravenous, 7.5 mg/kg encapsulated in optimized V-Smart vesicles, 60 min after the injection, read-out: concentration of tenofovir in the brain): ~1 µg/mL | concentration at 15 min (mouse, brain, intravenous, 7.5 mg/kg encapsulated in optimized V-Smart vesicles, after 15 min, read-out: concentration of tenofovir in the brain): > 6000 ng/g
